Laboratory results published in patent US20260174819A1, “COMPOSITIONS AND METHODS FOR OBTAINING HUMAN ALVEOLAR CELLS AND RELATED USES THEREOF” (The Regents of the University of Michigan, priority 2022, published 2026).

Columns and labels:
[1] = test system: CK+AB induced AT2-like organoids; test: Expansion of AT2-like organoids in SFFF media (growth, RT-qPCR, IF, FACS); format: cell-based, human; conditions: for MUC5AC expression (RT-qPCR) on removal of the component from SFFF / SFTPC expression (RT-qPCR) on removal of the component from SFFF: SFFF lacking the component vs SFFF
Protocol: After 21 days of differentiation in CK+AB or CK+DCI organoids were passaged and fed with SFFF or SFFF without FGF10 consisting of: Advanced DMEM/F12, 2 mM Glutamax, 1× B27 supplement, 100 U/mL penicillin-streptomycin, 15 mM HEPES, 0.05% BSA, 10 μM TGFβ inhibitor SB43152 (APExBIO, Cat #A8249), 1 μM p38 MAP kinase inhibitor BIRB796 (APExBIO, Cat #A5639), 3 μM CHIR99021, 50 ng/mL rhEGF (R&D Systems, Cat #236-EG) with (SFFF) or without the addition of 10 ng/mL FGF10 (produced in-house). Organoids were passaged every 7-14 days at a ratio of 1:6 by needle sheering^93.
(§1) Organoids were dislodged from Matrigel using a P1000 tip, pelleted in a 1.5 mL tube and flash frozen by placing the tube in a small amount of liquid nitrogen with minimal residual media. RNA was isolated from frozen pellets using the MagMax-96 Total RNA Isolation kit (Thermo Fisher, Cat #AM1830) according to the manufacturer's recommendations. RNA quality and yield was determined on a Nanodrop 2000 spectrophotometer. Reverse Transcription was performed in triplicate for each biological replicate using the SuperScript VILO cDNA kit with 200 ng RNA per reaction. After Reverse Transcription, cDNA was diluted 1:2 with DNAse/RNAse free water and 1/40th of the final reaction was used for each RT-qPCR measurement. RT-qPCR measurements were performed using a Step One Plus Real-Time PCR System (Thermo Fisher, Cat #43765592 R) using QuantiTect SYBR Green qPCR Master Mix (Qiagen, Cat #204145) with primers at a concentration of 500 nM. Sequences for RT-qPCR primers used in this manuscript are in Table 2.
Organoids were retrieved from Matrigel by mechanical dissociation with a P1000, washed 2× with 1 mL PBS and, resuspended with TrypLE and incubated at 37° C. until a single cell suspension was obtained with light pipetting (typically 10 min). Cells were washed 3× with 1 mL of FACS buffer consisting of PBS, 2% BSA and 10 μM Y-27632 (APE×BIO, Cat #3008) and then filtered through a […] mesh. Cells were stained for 1 h on ice in FACS buffer with a 1:60 dilution of anti HTII-280 IgM antibody. Cells were washed 3× with 1 mL of FACS buffer before 30 min of staining in FACS buffer with a 1:1000 dilution of anti-mouse IgM-Alexaflour-488 secondary antibody (Jackson Immunoresearch, Cat #715545140) on ice. After 3× washes with 1 mL of FACS buffer cells were suspended in FACS buffer with 1:4000 dilution of DAPI. […] All steps were carried out at 4° C. unless otherwise indicated. Cells were pelleted at 500×G for 5 min in swing bucket rotors. FACS was performed on either a Sony MA900 or the ThermoFisher Bigfoot Spectral Cell Sorter and analyzed in FlowJo v10.

BTP organoids = test: BTP organoid differentiation, RT-qPCR of AT2 and BTP markers; format: cell-based, human; conditions: 7 days
Protocol: Primary BTP organoid cultures from 15-18.5 weeks post conception lung tissue were established and maintained as previously reported^3,21,22. BTP organoids were maintained in maintenance media (described below) under 8 mg/mL Matrigel (Corning Cat #354234), fed every three days and passaged 1:3 every 7-10 days by needle sheering.
Differentiations were performed on BTP organoids at passage three by removing maintenance media consisting of: DMEM/F-12 (Corning, Cat #10-092-CV), 100 U/mL penicillin-streptomycin (Thermo Fisher, Cat #15140122), 1×B-27 supplement (Thermo Fisher, Cat #17504044), 1× N2 supplement (Thermo Fisher, Cat #17502048), 0.05% BSA (Sigma, Cat #A9647), 50 μg/mL L-ascorbic acid (Sigma,Cat #A4544), 0.4 μM 1-Thioglycerol (Sigma, Cat #M1753), 50 nM all-trans retinoic acid (Sigma, Cat #R2625), 10 ng/ml recombinant human FGF7 (R&D Systems, Cat #251-KG), and 3 μM CHIR99021 (APE×BIO, Cat #A3011) and replacing with differentiation media. For data in FIG. 3 multiple differentiation medias were tested, all of which consisted of maintenance media with the addition of 1 μM A-8301 and/or the addition of 100 ng/ml BMP4 and/or removal of all trans retinoic acid. B-27 supplement without vitamin A (Thermo Fisher, Cat #12587010) was used instead of full B-27 supplement in conditions in which all trans retinoic acid was removed. For data in all FIGS. 4, 6, 7, 10 differentiation media consisted of common components: DMEM/F12, 100 U/mL penicillin-streptomycin, 1×B-27 supplement without vitamin A, 1× N2 supplement, 0.05% BSA, 50 μg/mL L-ascorbic acid, 0.4 μM 1-Thioglycerol. 10 ng/ml recombinant human FGF7, and 3 μM CHIR99021. To make CK+AB differentiation media 1 μM A-8301 and 100 ng/mL BMP4 was added. To make CKDCI differentiation media 50 nM Dexamethasone (Sigma, Cat #D4902), […] 3-isobutyl-1-methylxanthine (Sigma, Cat #I5879) and […] 8-Bromoadensoine 3′,5′-cyclic monophosphate sodium salt (Sigma, Cat #B7880) was added. Differentiations were fed every three days and passaged at seven day intervals by needle sheering.
as §1
For RT-qPCR data arbitrary units (AUs) of gene expression was first calculated using the following equation: 2^(GAPDHCt-TargetCt)×10,000. For FIG. 12B, FIG. 5D, FIG. 7I, FIG. 9E, and FIG. 10H the AUs for each biological replicate were calculated from the mean of technical replicates and a ratio paired t-test was performed between the two conditions compared to determine statistical significance (p). […] For FIG. 3E AUs were normalized to AUs of expression in progenitor media for each biological replicate to obtain fold change. Repeated measures one-way ANOVA was performed with Dunnett's correction on linearized (log-transformed) fold change values comparing all experimental conditions to progenitor medium to determine p.

[2] = test system: canalicular stage human lung ALI explants; test: Lung ALI explant culture, immunofluorescent staining; format: cell-based; conditions: for SFTPA staining in ProSFTPC-positive cells: relative to untreated explants
Protocol: Human fetal lung within the canalicular stage of lung development was utilized for lung ALI explant cultures (specifically 15-18.5 weeks post conception). Small pieces (<0.5 cm diameter) were dissected from distal regions of the lung and placed on Nucleopore Track-Etched Membrane disks (13 mm, 8 μm pore, poly-carbonate) (Sigma, Cat #WHA110414) floating on top of 500 μl of human lung ALI explant media (Advanced DMEM/F-12 (Thermo Fisher, Cat #12634010), 2 mM Glutamax (Thermo Fisher, Cat #35050061), 15 mM HEPES (Corning, Cat #25060CI), 1× B27 Supplement (Thermo Fisher, Cat #17504044) 1×N-2 Supplement (Thermo Fisher, Cat #17502048), 100 U/mL penicillin-streptomycin (Thermo Fisher, Cat #15140122)) in a 24-well tissue culture plate (Thermo Fisher, Cat #12565163). Where indicated, 1 μM A-8301 (APE×BIO Cat #A3133), 100 ng/mL rhTGFβ1 (R&D Systems Cat #240-B-002), 100 ng/mL rhNOGGIN (produced in-house) or 100 ng/mL BMP4 (R&D Systems Cat #314-BP-050) was added to human lung ALI explant media.
All samples processed were fixed for 24 h in 10% Neutral Buffered Formalin at room temperature with gentle agitation. Samples were washed 3× with UltraPure DNase/RNase-free distilled water (Thermo Fisher, Cat #10977015) and dehydrated through an alcohol series consisting of 25%, 50%, 75% and 100% methanol, followed by 100% and 70% ethanol. For tissue and explants each step was performed for at least 1 h. For organoids each step was performed for at least 15 min. In the case of explants and organoids, specimens were embedded in Histogel (VWR Cat #83009-992) prior to paraffin processing. Samples were paraffin processed in an automated tissue processor through the following series: 70%, 80%, 2× 95%, 3× 100% ethanol, 3× xylene and 3× paraffin with 1 h for each step. Tissue was embedded into paraffin blocks and cut into 5 μm-thick sections onto charged glass slides using a microtome. Slides were baked for 1 h at 60° C. immediately prior to staining.
Slides were treated with 2× HistoClear II (National Diagnostics, Cat #HS-202) washes, then rehydrated through washes in 100%, 95%, 70%, 30% ethanol for 4 min each, with buffer exchanges performed halfway through washing. Then, slides were washed 2×5 min with ddH20. Antigen retrieval in 1× Sodium Citrate Buffer (100 mM trisodium citrate (Sigma, Cat #S1804), 0.5% Tween-20 (Thermo Fisher, Cat #BP337), pH 6.0) for 20 min at 99° C. After washing 3× in ddH20 slides were blocked for 1 h with blocking solution: 5% normal donkey serum (Sigma, Cat #D9663), 0.1% Tween-20 in PBS. Slides were then incubated in primary antibodies diluted in blocking solution in a humidified chamber at 4° C. overnight. Slides were washed 3× in 1×PBS for 10 min each. Slides were incubated with secondary antibodies and DAPI (1 μg/mL) diluted in blocking solution for 1 h, then were washed 3× in 1×PBS for 5 min each. Slides were mounted in ProLong Gold (Thermo Fisher, Cat #P369300) and imaged within 2 weeks. Primary and secondary antibodies used in this study are available in Table 1.

[3] = CK+AB in absence vs presence of ATRA
[4] = added to bud tip progenitor media, vs progenitor media

With `Cc1ccc(-n2nc(C(C)(C)C)cc2NC(=O)Nc2ccc(OCCN3CCOCC3)c3ccccc23)cc1` [BIRB797, reference compound] the “MUC5AC expression (RT-qPCR) on removal of the component from SFFF” value [1] was “increased” and the “SFTPC expression (RT-qPCR) on removal of the component from SFFF” value [1] was “improved expression”.

With `CC1=C(/C=C/C(C)=C/C=C/C(C)=C/C(=O)O)C(C)(C)CCC1` [ATRA, all-trans retinoic acid] the “SFTPB expression (RT-qPCR) on removal of ATRA” value (BTP organoids; [3]) was “reduced”, the “SFTPC expression (RT-qPCR) on removal of ATRA” value (BTP organoids; [3]) was “significantly enhancing” and the “SOX9 expression (RT-qPCR) on removal of ATRA” value (BTP organoids; [3]) was “reducing”.

“TGFβ1: recombinant TGFβ1, activator of TGFβ-signaling, 100 ng/mL” was tested, and the “TP63 expression in epithelial cells” value ([2]; ALI explants) was “most epithelial cells expressing TP63”, the ProSFTPC staining ([2]; day 6 ALI explants) was “reduced” and the “SFTPA staining in ProSFTPC-positive cells” value (shortened to “SFTPA staining”) ([2]; day 6 ALI explants) was “barely detectible”.

`Cc1cccc(-c2nn(C(=S)Nc3ccccc3)cc2-c2ccnc3ccccc23)n1` [A-8301] was tested, and the “SFTPA staining” value ([2]; day 6 ALI explants) was “increased”, the “BTP marker SOX9 expression (RT-qPCR)” value (BTP organoids; [4]) was “Neither treatment alone significantly reduced” and the “SFTPA1 expression (RT-qPCR)” value (BTP organoids; [4]) was “significantly increased”. For the same molecule, the “SFTPC expression (RT-qPCR)” value (BTP organoids; [4]) was “significantly increased”.

B1: FGF10: recombinant human FGF10, 10 ng/mL, produced in-house, component of SFFF (protein, UniProt O15520 38-208, looked up)
Fibroblast growth factor 10: QALGQDMVSPEATNSSSSSFSSPSSAGRHVRSYNHLQGDVRWRKLFSFTKYFLKIEKNGKVSGTKKENCPYSILEITSVEIGVVAVKAINSNYYLAMNKKGKLYGSKEFNNDCKLKERIEENGYNTYASFNWQHNGRQMYVALNGKGAPRRGQKTRRKNTSAHFLPMVVHS
B1 was tested, and the “MUC5AC expression (RT-qPCR) on removal of the component from SFFF” value [1] was “reduction of MUC5AC to near-zero levels”, the “SFTPC expression (RT-qPCR) on removal of the component from SFFF” value [1] was “improved expression” and the “AT2 phenotype of CK+AB differentiated AT2-like cells” value ([1]; SFFF with vs without FGF10) was “repressed”.

B2: NOGGIN: recombinant BMP inhibitor NOGGIN, 100 ng/mL, produced in-house (protein, UniProt Q13253 28-232, looked up)
Noggin: QHYLHIRPAPSDNLPLVDLIEHPDPIFDPKEKDLNETLLRSLLGGHYDPGFMATSPPEDRPGGGGGAAGGAEDLAELDQLLRQRPSGAMPSEIKGLEFSEGLAQGKKQRLSKKLRRKLQMWLWSQTFCPVLYAWNDLGSRFWPRYVKVGSCFSKRSCSVPEGMVCKPSKSVHLTVLRWRCQRRGGQRCGWIPIQYPIISECKCSC
With B2 the phosphoSMAD1/5/8 staining ([2]; day 6 ALI explants, 100 ng/mL NOGGIN) was “blocked” and the “SFTPA staining” value ([2]; day 6 ALI explants) was “did not change”.

B3: BMP4: recombinant BMP4, BMP-activator, 100 ng/mL (R&D Systems) (protein, UniProt P12644 293-408, looked up)
Bone morphogenetic protein 4: SPKHHSQRARKKNKNCRRHSLYVDFSDVGWNDWIVAPPGYQAFYCHGDCPFPLADHLNSTNHAIVQTLVNSVNSSIPKACCVPTELSAISMLYLDEYDKVVLKNYQEMVVEGCGCR
With B3 the “SFTPA staining” value ([2]; day 6 ALI explants) was “robust and readily detectable levels”, the “BTP marker SOX9 expression (RT-qPCR)” value (BTP organoids; [4]) was “Neither treatment alone significantly reduced” and the “HOPX expression (RT-qPCR)” value (BTP organoids; [4]) was “significantly increased”. The “LAMP3 expression (RT-qPCR)” value (BTP organoids; [4]) was “significantly increased”, the “SFTPA1 expression (RT-qPCR)” value (BTP organoids; [4]) was “significantly increased” and the “SFTPB expression (RT-qPCR)” value (BTP organoids; [4]) was “significantly increased”.
